Our source for the IC50 values is ChEMBL document CHEMBL1124842, “Cyclohexane diester analogues of phorbol ester as potential activators of protein kinase C” (J Med Chem, 1990).

This experiment can be described thus: Inhibition of [3H]PDBu binding to murine brain PKC (protein kinase C). Also noted: species or system Mus musculus.
As a reminder, the IC50 is the concentration at which inhibition is half-maximal. High values mean lower potency, low ones higher potency. Take `CCCCCCCC(=O)OC[C@H](CO)OC(=O)CCCCCCC`: the IC50 came to 5 µM. Then `O=C(OC1CC[C@H](CO)CC1OC(=O)c1ccccc1)c1ccccc1` (some centres undefined), with greater than 1000 µM; and `O=C(OC1CC[C@H](/C=C/CO)CC1OC(=O)c1ccccc1)c1ccccc1` (some centres undefined), with greater than 1000 µM; and `CCCCCCCC(=O)OC1CC[C@H](/C=C/CO)CC1OC(=O)CCCCCCC` (some centres undefined), with greater than 1000 µM.

Consider `CCCCCCCC(=O)OC1CC[C@H](/C=C/CCO)CC1OC(=O)CCCCCCC` (some centres undefined), for which the IC50 was greater than 1000 µM. `CCCCCCCC(=O)OC1CC[C@H](CO)CC1OC(=O)CCCCCCC` (stereo in doubt; 20b) displayed an IC50 of 1000 µM. The figure for `CCCCCCCC(=O)OC1CC[C@H](CO)CC1OC(=O)CCCCCCC` (stereo in doubt; 20a) is greater than 1000 µM; for `CCCCCCCCCCCCCC(=O)O[C@@H]1[C@@H](C)[C@@]2(O)[C@@H](C=C(CO)C[C@]3(O)C(=O)C(C)=C[C@@H]23)[C@@H]2C(C)(C)[C@]12OC(C)=O` [PHORBOL MYRISTATE ACETATE] it is 0.01 µM. Then `O=C(OC1CC[C@H](/C=C/CCO)CC1OC(=O)c1ccccc1)c1ccccc1` (some centres undefined), with greater than 1000 µM.
